Results: patent US20260176320A1, “MODULATORS OF G-PROTEIN COUPLED RECEPTORS” (priority 2018, published 2026)
Where two headings read alike, the source gives them in different places.

Key:
Type in all cases: cell-based
[1] = molecular target: T1, GIP-R (Homo sapiens, UniProt P48546); assay: HitHunter cAMP assay (GIP-R); details: cAMP; for Emax: read-out: (Emax) GIP-R
T1 sequence (P48546 22-466): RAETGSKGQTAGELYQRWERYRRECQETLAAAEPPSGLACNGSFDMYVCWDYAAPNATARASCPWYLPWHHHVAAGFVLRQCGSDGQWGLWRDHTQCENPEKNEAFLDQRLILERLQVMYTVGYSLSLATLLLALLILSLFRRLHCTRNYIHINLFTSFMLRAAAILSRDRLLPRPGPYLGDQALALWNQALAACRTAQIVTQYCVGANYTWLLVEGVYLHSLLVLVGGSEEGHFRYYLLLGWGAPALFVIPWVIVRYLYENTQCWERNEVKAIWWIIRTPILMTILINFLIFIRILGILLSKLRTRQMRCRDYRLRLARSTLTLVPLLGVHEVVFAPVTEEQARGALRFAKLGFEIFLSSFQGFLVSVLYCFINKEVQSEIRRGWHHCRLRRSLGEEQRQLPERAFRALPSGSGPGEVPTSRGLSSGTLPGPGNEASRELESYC
Procedure, shortened: (§1)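 Agonist stimulation lasts 30 min at room temperature on 10,000 cells per well, with phosphodiesterase blocked by 625 μM IBMX. Accumulated cAMP is quantified by competitive antibody luminescence after overnight development.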

[2] = molecular target: T2, GLP-1R (Homo sapiens, UniProt P43220); assay: PathHunter β-arrestin assay
T2 sequence (P43220 24-463): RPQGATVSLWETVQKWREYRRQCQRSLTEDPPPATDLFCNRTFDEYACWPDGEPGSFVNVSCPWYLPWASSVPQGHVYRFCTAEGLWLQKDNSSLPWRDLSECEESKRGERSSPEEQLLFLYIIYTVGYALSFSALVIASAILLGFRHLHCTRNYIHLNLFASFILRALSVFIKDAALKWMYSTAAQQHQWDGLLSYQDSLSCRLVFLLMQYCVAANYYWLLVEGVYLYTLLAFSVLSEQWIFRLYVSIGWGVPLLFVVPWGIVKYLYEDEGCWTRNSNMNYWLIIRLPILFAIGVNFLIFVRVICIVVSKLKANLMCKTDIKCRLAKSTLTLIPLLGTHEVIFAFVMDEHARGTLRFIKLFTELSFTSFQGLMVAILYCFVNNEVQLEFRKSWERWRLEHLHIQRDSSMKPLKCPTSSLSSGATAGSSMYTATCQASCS
Procedure: The effects of the chemical entities described herein on β-arrestin signaling and associated downstream processes (e.g., those delineated above) can be assessed using conventional methods, e.g., PathHunter β-arrestin Assay for determining β-arresting coupling (see Examples section). […] It has been shown that b-arrestin coupling is a key strep in receptor internalization and subsequent de-sensitization and attenuation of signaling.
5,000 cells were seeded in appropriate cell culture media per well in a low volume 384-well tissue culture plate. The assay plate was incubated with cells overnight at 37° C. and 5% CO2. The media was removed, and 5 μL of appropriate cell culture media containing 0.2% BSA was added. Agonist serial dilutions in a separate 384 well dilution plate in a 22-point series of 2× dilutions of agonist in DMSO were performed as follows. 80 μL of the highest concentration of Agonist/DMSO was added to well No. 1. 40 μL was removed from well No. 1, and added to well No. 2, followed by gentle mixing. […] This process was repeated until well No. 22. Additional serial dilutions for additional agonists were set up in a similar manner. 100 nL of each 2× agonist serial dilution was added in duplicate to the designated agonist rows of the assay plate using the Labcyte ECHO. Assay plate was incubated for 90 minutes at 37° C. and 5% CO2. A stock of Working Detection Solution in a separate 15 ml polypropylene tube was prepared by mixing 19 parts of Cell Assay Buffer, 5 parts of Substrate Reagent 1, 1 part Substrate Reagent 2. […] Plates were spun down briefly. Assay plate was incubated for 3 hour at room temperature in the dark for the immunocompetition reaction to occur. Samples were read on Tecan i-control plate reader using luminescence mode with 100 ms integration time. Data analysis was performed using GraphPad Prism.

[3] = molecular target: T2, GLP-1R; assay: HitHunter cAMP assay (GLP-1R); details: cAMP; for Emax: read-out: (Emax) GLP-1R
Procedure, shortened: as §1

[4] = Table 3, read-out: EC50 GIP-R/nM
[5] = Table 3A, read-out: EC50 GIP-R/nM
[6] = PathHunter β-arrestin assay, read-out: β-arrestin activity EC50
[7] = Table 3, read-out: EC50 GLP-1R/nM
[8] = Table 3A, read-out: EC50 GLP-1R/nM

CCCCCCCCCCCCCCCC(=O)N[C@@H](CCC(=O)NCCCC[C@H](NC(=O)[C@H](CO)NC(=O)[C@@H]1CCCN1C(=O)[C@@H]1CCCN1C(=O)[C@@H]1CCCN1C(=O)[C@H](C)NC(=O)CNC(=O)[C@H](CO)NC(=O)[C@H](CO)NC(=O)[C@@H]1CCCN1C(=O)CNC(=O)CNC(=O)[C@H](C)NC(=O)[C@H](CC(C)C)NC(=O)[C@H](CC(C)C)NC(=O)[C@H](Cc1c[nH]c2ccccc12)NC(=O)[C@H](CC(N)=O)NC(=O)[C@@H](NC(=O)[C@H](Cc1ccccc1)NC(=O)[C@H](CCC(=O)O)NC(=O)C(C)(C)NC(=O)[C@H](C)NC(=O)[C@H](C)NC(=O)[C@H](CCC(N)=O)NC(=O)[C@H](CCCCN)NC(=O)[C@H](CC(=O)O)NC(=O)[C@H](CC(C)C)NC(=O)[C@H](Cc1ccc(O)cc1)NC(=O)[C@@H](NC(=O)[C@H](CO)NC(=O)[C@H](Cc1ccc(O)cc1)NC(=O)[C@H](CC(=O)O)NC(=O)[C@H](CO)NC(=O)[C@@H](NC(=O)[C@H](Cc1ccccc1)NC(=O)[C@@H](NC(=O)CNC(=O)[C@H](CCC(=O)O)NC(=O)CSCC(=O)NCCN1CCN(C)C(=O)C1)[C@@H](C)O)[C@@H](C)O)[C@@H](C)CC)C(C)C)C(N)=O)C(=O)O [Compound 38]
Emax ([1]; Table 3): 18 to 43%
EC50 [1, 4]: 1 to 10 nM
Emax ([1]; Table 3A): 18 to 43%
EC50 [1, 5]: 1 to 1000 nM
EC50 [2, 6]: > 1000 nM
Emax ([3]; Table 3): 97 to 104%
EC50 [3, 7]: 0.1 to 1 nM
Emax ([3]; Table 3A): 97 to 104%
EC50 [3, 8]: 0.1 to 1 nM

CCCCCCCCCCCCCCCC(=O)N[C@@H](CCC(=O)NCCCC[C@H](NC(=O)[C@H](CO)NC(=O)[C@@H]1CCCN1C(=O)[C@@H]1CCCN1C(=O)[C@@H]1CCCN1C(=O)[C@H](C)NC(=O)CNC(=O)[C@H](CO)NC(=O)[C@H](CO)NC(=O)[C@@H]1CCCN1C(=O)CNC(=O)CNC(=O)[C@H](C)NC(=O)[C@H](CC(C)C)NC(=O)[C@H](CC(C)C)NC(=O)[C@H](Cc1c[nH]c2ccccc12)NC(=O)[C@H](CC(N)=O)NC(=O)[C@@H](NC(=O)[C@H](Cc1ccccc1)NC(=O)[C@H](CCC(=O)O)NC(=O)C(C)(C)NC(=O)[C@H](C)NC(=O)[C@H](C)NC(=O)[C@H](CCC(N)=O)NC(=O)[C@H](CCCCN)NC(=O)[C@H](CC(=O)O)NC(=O)[C@H](CC(C)C)NC(=O)[C@H](Cc1ccc(O)cc1)NC(=O)[C@@H](NC(=O)[C@H](CO)NC(=O)[C@H](Cc1ccc(O)cc1)NC(=O)[C@H](CC(=O)O)NC(=O)[C@H](CO)NC(=O)[C@@H](NC(=O)[C@H](Cc1ccccc1)NC(=O)[C@@H](NC(=O)CNC(=O)[C@H](CCC(=O)O)NC(=O)CSCC(=O)NCCN1CC(=O)NC1=O)[C@@H](C)O)[C@@H](C)O)[C@@H](C)CC)C(C)C)C(N)=O)C(=O)O [Compound 34]
Emax ([1]; Table 3): 20 to 38%
EC50 [1, 4]: 1 to 10 nM
Emax ([1]; Table 3A): 20 to 38%
EC50 [1, 5]: 1 to 100 nM
EC50 [2, 6]: > 1000 nM
Emax ([3]; Table 3): 107%
EC50 [3, 7]: 0.1 to 1 nM
Emax ([3]; Table 3A): 107%
EC50 [3, 8]: 0.1 to 1 nM

CC[C@H](C)[C@H](NC(=O)[C@H](CO)NC(=O)[C@H](Cc1ccc(O)cc1)NC(=O)[C@H](CC(=O)O)NC(=O)[C@H](CO)NC(=O)[C@@H](NC(=O)[C@H](Cc1ccccc1)NC(=O)[C@@H](NC(=O)CNC(=O)[C@H](CCC(=O)O)NC(=O)CSCC(=O)NCCN1C(=O)CSC1=O)[C@@H](C)O)[C@@H](C)O)C(=O)N[C@@H](Cc1ccc(O)cc1)C(=O)N[C@@H](CC(C)C)C(=O)N[C@@H](CC(=O)O)C(=O)N[C@@H](CCCCN)C(=O)N[C@@H](CCC(N)=O)C(=O)N[C@@H](C)C(=O)N[C@@H](C)C(=O)NC(C)(C)C(=O)N[C@@H](CCC(=O)O)C(=O)N[C@@H](Cc1ccccc1)C(=O)N[C@H](C(=O)N[C@@H](CC(N)=O)C(=O)N[C@@H](Cc1c[nH]c2ccccc12)C(=O)N[C@@H](CC(C)C)C(=O)N[C@@H](CC(C)C)C(=O)N[C@@H](C)C(=O)NCC(=O)NCC(=O)N1CCC[C@H]1C(=O)N[C@@H](CO)C(=O)N[C@@H](CO)C(=O)NCC(=O)N[C@@H](C)C(=O)N1CCC[C@H]1C(=O)N1CCC[C@H]1C(=O)N1CCC[C@H]1C(=O)N[C@@H](CO)C(=O)N[C@@H](CCCCN)C(N)=O)C(C)C [Compound 196]
Emax ([1]; Table 3): 41 to 86%
EC50 [1, 4]: 1 to 100 nM
Emax ([1]; Table 3A): 41 to 86%
EC50 [1, 5]: 1 to 100 nM
EC50 [2, 6]: > 1000 nM
Emax ([3]; Table 3): 93 to 104%
EC50 [3, 7]: 0.1 to 10 nM
Emax ([3]; Table 3A): 93 to 104%
EC50 [3, 8]: 0.1 to 10 nM

CC[C@H](C)[C@H](NC(=O)[C@H](CO)NC(=O)[C@H](Cc1ccc(O)cc1)NC(=O)[C@H](CC(=O)O)NC(=O)[C@H](CO)NC(=O)[C@@H](NC(=O)[C@H](Cc1ccccc1)NC(=O)[C@@H](NC(=O)CNC(=O)[C@H](CCC(=O)O)NC(=O)CSCC(=O)NCCN1C(=O)c2cccc(Cl)c2C1=O)[C@@H](C)O)[C@@H](C)O)C(=O)N[C@@H](Cc1ccc(O)cc1)C(=O)N[C@@H](CC(C)C)C(=O)N[C@@H](CC(=O)O)C(=O)N[C@@H](CCCCN)C(=O)N[C@@H](CCC(N)=O)C(=O)N[C@@H](C)C(=O)N[C@@H](C)C(=O)NC(C)(C)C(=O)N[C@@H](CCC(=O)O)C(=O)N[C@@H](Cc1ccccc1)C(=O)N[C@H](C(=O)N[C@@H](CC(N)=O)C(=O)N[C@@H](Cc1c[nH]c2ccccc12)C(=O)N[C@@H](CC(C)C)C(=O)N[C@@H](CC(C)C)C(=O)N[C@@H](C)C(=O)NCC(=O)NCC(=O)N1CCC[C@H]1C(=O)N[C@@H](CO)C(=O)N[C@@H](CO)C(=O)NCC(=O)N[C@@H](C)C(=O)N1CCC[C@H]1C(=O)N1CCC[C@H]1C(=O)N1CCC[C@H]1C(=O)N[C@@H](CO)C(=O)N[C@@H](CCCCN)C(N)=O)C(C)C [Compound 162]
Emax ([1]; Table 3): 103 to 107%
Emax ([1]; Table 3A): 103 to 107%
EC50 ([1]; read-out: EC50 GIP-R/nM, Table 3): 0.1 to 10 nM
EC50 ([1]; read-out: EC50 GIP-R/nM, Table 3A): 0.1 to 10 nM
EC50 [2]: > 1000 nM
EC50 ([3]; EC50 GLP-1R/nM, Table 3): 10 to 100 nM
EC50 ([3]; EC50 GLP-1R/nM, Table 3A): 10 to 100 nM
Emax ([3]; Table 3): 42 to 46%
Emax ([3]; Table 3A): 42 to 46%

CC[C@H](C)[C@H](NC(=O)[C@H](CO)NC(=O)[C@H](Cc1ccc(O)cc1)NC(=O)[C@H](CC(=O)O)NC(=O)[C@H](CO)NC(=O)[C@@H](NC(=O)[C@H](Cc1ccccc1)NC(=O)[C@@H](NC(=O)CNC(=O)[C@H](CCC(=O)O)NC(=O)CCCCC(=O)NCCN1C(=O)c2ccccc2C1=O)[C@@H](C)O)[C@@H](C)O)C(=O)N[C@@H](Cc1ccc(O)cc1)C(=O)N[C@@H](CC(C)C)C(=O)N[C@@H](CC(=O)O)C(=O)N[C@@H](CCCCN)C(=O)N[C@@H](CCC(N)=O)C(=O)N[C@@H](C)C(=O)N[C@@H](C)C(=O)NC(C)(C)C(=O)N[C@@H](CCC(=O)O)C(=O)N[C@@H](Cc1ccccc1)C(=O)N[C@H](C(=O)N[C@@H](CC(N)=O)C(=O)N[C@@H](Cc1c[nH]c2ccccc12)C(=O)N[C@@H](CC(C)C)C(=O)N[C@@H](CC(C)C)C(=O)N[C@@H](C)C(=O)NCC(=O)NCC(=O)N1CCC[C@H]1C(=O)N[C@@H](CO)C(=O)N[C@@H](CO)C(=O)NCC(=O)N[C@@H](C)C(=O)N1CCC[C@H]1C(=O)N1CCC[C@H]1C(=O)N1CCC[C@H]1C(=O)N[C@@H](CO)C(=O)N[C@@H](CCCCN)C(N)=O)C(C)C [Compound 181]
EC50 ([1]; EC50 GIP-R/nM, Table 3): 1 to 10 nM
EC50 ([1]; EC50 GIP-R/nM, Table 3A): 1 to 10 nM
Emax ([1]; Table 3): 102%
Emax ([1]; Table 3A): 102%
EC50 [2]: > 1000 nM
EC50 ([3]; EC50 GLP-1R/nM, Table 3): 10 to 100 nM
EC50 ([3]; EC50 GLP-1R/nM, Table 3A): 10 to 100 nM
Emax ([3]; Table 3): 103%
Emax ([3]; Table 3A): 103%
